Results taken from US9987278B2, “Pharmaceutical composition for treating FLT3 mutation-positive cancer, mutant FLT3 inhibitor and uses thereof” (FUJIFILM Corporation, priority 2014, dated 2018).
Like-named read-outs stand apart in the source and are kept apart here.

Columns and labels:
32D FLT3 D835Ins cells = assay: Cell growth assay, 32D FLT3 D835Ins; format: cell-based; details: Mus musculus, 48 h, read-out: GI50 value for growth of FLT3 protein-expressing 32D cells
Protocol: (§1) After the virus-containing culture supernatant was added to the mouse hematopoietic precursor cell line 32D cells in the presence of 10 μg/mL polybrene, and the cells were cultured in the presence of 0.5 ng/mL mouse IL-3.
(§2) Individual cells were seeded onto a 96-well plate (Becton, Dickinson and Company) at a density of 1000 to 10000 cells/well, and the cell culture was started at 37° C. in the presence of 5% CO2. On the next day, the compound diluted in 3-fold common ratio was added to each well, followed by further culturing for 2 days. Then, in order to evaluate the cell viability, a CellTiter 96 AQueous One SolutionReagent was added to each well according to the Promega Corporation's protocol, followed by culturing for 1 hour. […] In a case where the absorbance is insufficient, the absorbance was measured after performing the culturing for another 1 to 2 hours.

32D FLT3 D835Y cells = assay: Cell growth assay, 32D FLT3 D835Y; format: cell-based; details: Mus musculus, 48 h, read-out: GI50 value for growth of FLT3 protein-expressing 32D cells
Protocol: as §1, §2

32D FLT3 Y842C cells = assay: Cell growth assay, 32D FLT3 Y842C; format: cell-based; details: Mus musculus, 48 h, read-out: GI50 value for growth of FLT3 protein-expressing 32D cells
Protocol: as §1, §2

32D FLT3/FL cells = assay: Cell growth assay, FLT3/FLT3 ligand-coexpressing 32D cell line; format: cell-based; details: Mus musculus, 48 h, read-out: GI50 value for growth of FLT3 protein-expressing 32D cells
Protocol: RPMI1640 and DMEM were purchased from Life Technologies or SIGMA. The 32D cells were obtained from RIKEN Bioresource Center, and cultured in the presence of 5% CO2 at 37° C. using an RPMI1640 medium containing 1 ng/mL mouse IL-3, 10% fetal bovine serum (FBS), 100 U/mL penicillin and […] streptomycin. The PLAT-E cells were kindly provided by Dr. Kitamura Toshio of Tokyo University and cultured in a DMEM medium containing 1 μg/mL puromycin, 10 μg/mL blasticidin S, 10% FBS, 100 U/mL penicillin and […] streptomycin. […] A pGEM-T vector, FuGENE6 and CellTiter 96 AQueous One Solution Cell Proliferation Assay were purchased from Promega Corporation.
as §2

[1] = molecular target: mutant FLT3 protein (FLT3 D835Y) (Homo sapiens (Human), UniProt P36888, D835Y); assay: Mutant FLT3 (FLT3 D835Y) enzyme inhibition assay; format: biochemical; details: ATP 15 μmol/L, read-out: IC50 value for an enzymatic activity of a mutant FLT3 protein
32D FLT3 D835V cells = assay: Cell growth assay, 32D FLT3 D835V; format: cell-based; details: Mus musculus, 48 h, read-out: GI50 value for growth of FLT3 protein-expressing 32D cells
Protocol: as §1, §2

32D FLT3 D835H cells = assay: Cell growth assay, 32D FLT3 D835H; format: cell-based; details: Mus musculus, 48 h, read-out: GI50 value for growth of FLT3 protein-expressing 32D cells
Protocol: as §1, §2

32D FLT3 D835N cells = assay: Cell growth assay, 32D FLT3 D835N; format: cell-based; details: Mus musculus, 48 h, read-out: GI50 value for growth of FLT3 protein-expressing 32D cells
Protocol: as §1, §2

32D FLT3 D835E cells = assay: Cell growth assay, 32D FLT3 D835E; format: cell-based; details: Mus musculus, 48 h, read-out: GI50 value for growth of FLT3 protein-expressing 32D cells
Protocol: as §1, §2

32D FLT3 Y842H cells = assay: Cell growth assay, 32D FLT3 Y842H; format: cell-based; details: Mus musculus, 48 h, read-out: GI50 value for growth of FLT3 protein-expressing 32D cells
Protocol: as §1, §2

[2] = FLT3 D835Ins (I836 to leucine and aspartic acid), 2 days with compound
[3] = FLT3 D835Y, 2 days with compound
[4] = FLT3 Y842C, 2 days with compound
[5] = FLT3 D835V, 2 days with compound
[6] = FLT3 D835H, 2 days with compound
[7] = FLT3 D835N, 2 days with compound
[8] = FLT3 D835E, 2 days with compound
[9] = FLT3 Y842H, 2 days with compound

Structure (SMILES) | IC50 [1] | other results
CNc1nc(Nc2ccc(F)cc2)ncc1C#C[C@H]1C[C@@H](NC(=O)[C@H](C)N(C)C(=O)/C=C/CN(C)C)C1 [Compound 41] | < 1 nM | GI50 (32D FLT3 D835Ins cells; [2]): 1 to 10 nM; GI50 (32D FLT3 D835Y cells; [3]): 1 to 10 nM; GI50 (32D FLT3 Y842C cells; [4]): 1 to 10 nM; GI50 (32D FLT3/FL cells; FLT3/FL, 2 days with compound): < 1 nM; GI50 (32D FLT3 D835V cells; [5]): 1 to 10 nM; GI50 (32D FLT3 D835H cells; [6]): 1 to 10 nM; GI50 (32D FLT3 D835N cells; [7]): 1 to 10 nM; GI50 (32D FLT3 D835E cells; [8]): 1 to 10 nM; GI50 (32D FLT3 Y842H cells; [9]): 1 to 10 nM
C[C@@H](C(=O)N[C@H]1C[C@@H](C#Cc2cnc(Nc3ccc(F)cc3)nc2NC2CC2)C1)N(C)C(=O)/C=C/CN(C)C [Compound 40] | < 1 nM | GI50 (32D FLT3 D835Ins cells; [2]): < 1 nM; GI50 (32D FLT3 D835Y cells; [3]): < 1 nM; GI50 (32D FLT3 Y842C cells; [4]): 1 to 10 nM; GI50 (32D FLT3/FL cells; FLT3/FL, 2 days with compound): < 1 nM; GI50 (32D FLT3 D835V cells; [5]): < 1 nM; GI50 (32D FLT3 D835H cells; [6]): 1 to 10 nM; GI50 (32D FLT3 D835N cells; [7]): < 1 nM; GI50 (32D FLT3 D835E cells; [8]): < 1 nM; GI50 (32D FLT3 Y842H cells; [9]): 1 to 10 nM
C=CC(=O)NCC(=O)N(C)c1cccc(NC(=O)c2cnc(NCCc3ccncc3)nc2NCCC)c1 [Compound 11] | 1 to 10 nM | –
CCCNc1nc(Nc2ccc(C(N)=O)cc2)ncc1C(=O)NC1CCCC(NC(=O)CN(C)C(=O)/C=C/CN(C)C)C1 (stereo not shown) [Compound 26] | < 1 nM | –
C=CC(=O)NCC(=O)Nc1ccccc1CNC(=O)c1cnc(NCCc2ccncc2)nc1NCCC [Compound 3] | 1 to 10 nM | –
C=CC(=O)N(C)CC(=O)NC(CC)CCNC(=O)c1cnc(NCCc2ccncc2)nc1NCCC (stereo not shown) [Compound 19] | < 1 nM | –
C=CC(=O)NCC(=O)NC(CC)CCNC(=O)c1cnc(NCCc2ccncc2)nc1NCCC (stereo not shown) [Compound 17] | < 1 nM | –
CCCNc1nc(NCCc2ccncc2)ncc1C(=O)Nc1cccc(NC(=O)[C@H](C)N(C)C(=O)/C=C/CN(C)C)c1 [Compound 30] | < 1 nM | –
C=CC(=O)N(C)CC(=O)Nc1cccc(NC(=O)c2cnc(NCCc3ccncc3)nc2NCCC)c1 [Compound 10] | < 1 nM | –
CCCNc1nc(NCCc2ccncc2)ncc1C(=O)Nc1cccc(NC(=O)CNC(=O)/C=C/CN2CCN(C)CC2)c1 [Compound 12] | 1 to 10 nM | –
CCCNc1nc(NCCc2ccncc2)ncc1C(=O)Nc1cccc(NC(=O)[C@H](C)NC(=O)/C=C/CN(C)C)c1 [Compound 24] | < 1 nM | –
CCCNc1nc(NCCc2ccncc2)ncc1C(=O)Nc1cccc(NC(=O)CNC(=O)/C=C/CN(C)C)c1 [Compound 5] | < 1 nM | –
CCCNc1nc(Nc2ccc(C(N)=O)cc2)ncc1C(=O)NCCCNC(=O)[C@H](C)N(C)C(=O)/C=C/CN(C)C [Compound 25] | < 1 nM | –
CCCNc1nc(NCCc2ccncc2)ncc1C(=O)Nc1cccc(NC(=O)CNC(=O)/C=C/CN2CCN(CCO)CC2)c1 [Compound 14] | < 1 nM | –
CCCNc1nc(NCCc2ccncc2)ncc1C#Cc1cccc(NC(=O)[C@H](C)N(C)C(=O)/C=C/CN(C)C)c1 [Compound 35] | < 1 nM | –
CCCNc1nc(Nc2ccc(C(N)=O)cc2)ncc1C#Cc1cccc(NC(=O)[C@H](C)N(C)C(=O)/C=C/CN(C)C)c1 [Compound 29] | < 1 nM | –
C=CC(=O)NCCOc1cccc(NC(=O)c2cnc(NCCc3ccncc3)nc2NCCC)c1 [Compound 6] | 1 to 10 nM | –
CCCNc1nc(Nc2ccc(C(N)=O)cc2)ncc1C#Cc1cccc(NCCNC(=O)/C=C/CN(C)C)c1 [Compound 31] | 1 to 10 nM | –
CCCNc1nc(NCCc2ccncc2)ncc1C(=O)Nc1cccc(NC(=O)CNC(=O)/C=C/CN2CCOCC2)c1 [Compound 13] | 1 to 10 nM | –
CCCNc1nc(Nc2cccc(C#N)c2)ncc1C#CCCCNC(=O)[C@H](C)N(C)C(=O)/C=C/CN(C)C [Compound 33] | 1 to 10 nM | –
C=CC(=O)NCC(=O)NCCCNC(=O)c1cnc(NCCc2ccncc2)nc1NCCC [Compound 7] | < 1 nM | –

Structure (SMILES) | IC50 [1] | other results
CNC(=O)c1cc(Oc2ccc(NC(=O)Nc3ccc(Cl)c(C(F)(F)F)c3)cc2)ccn1 [Reference Compound 2, Sorafenib, reference compound] | – | GI50 (32D FLT3 D835Ins cells): 10 to 100 nM; GI50 (32D FLT3 D835Y cells): > 100 nM; GI50 (32D FLT3 Y842C cells): > 100 nM; GI50 (32D FLT3/FL cells): 10 to 100 nM; GI50 (32D FLT3 D835V cells): > 100 nM; GI50 (32D FLT3 D835H cells): > 100 nM; GI50 (32D FLT3 D835N cells): 10 to 100 nM; GI50 (32D FLT3 D835E cells): 10 to 100 nM; GI50 (32D FLT3 Y842H cells): > 100 nM
C[C@@H](C(=O)Nc1cccc(C#Cc2cnc(NCCc3ccncc3)nc2N2CCOCC2)c1)N(C)C(=O)/C=C/CN(C)C [Compound 36] | < 1 nM | –
CCCNc1nc(Nc2ccc3cnccc3c2)ncc1C(=O)Nc1cccc(NC(=O)[C@H](C)N(C)C(=O)/C=C/CN(C)C)c1 [Compound 28] | < 1 nM | –
C=CC(=O)NCC(=O)Nc1cccc(CNC(=O)c2cnc(NCCc3ccncc3)nc2NCCC)c1 [Compound 1] | 1 to 10 nM | –
CCCNc1nc(Nc2ccc(C(N)=O)cc2)ncc1C(=O)Nc1cccc(NC(=O)[C@H](C)N(C)C(=O)/C=C/CN2CC(O)C2)c1 [Compound 32] | < 1 nM | –
CCCNc1nc(NCCc2ccncc2)ncc1C(=O)NCCC(CC)NC(=O)CNC(=O)/C=C/CN(C)C (stereo not shown) [Compound 18] | < 1 nM | –
C=CC(=O)NC(C)(C)C(=O)Nc1cccc(NC(=O)c2cnc(NCCc3ccncc3)nc2NCCC)c1 [Compound 9] | < 1 nM | –
CCCNc1nc(NCCc2ccncc2)ncc1C(=O)NCCC(CC)NC(=O)CN(C)C(=O)/C=C/CN(C)C (stereo not shown) [Compound 20] | < 1 nM | –
C=CC(=O)N[C@@H](C)C(=O)Nc1cccc(NC(=O)c2cnc(NCCc3ccncc3)nc2NCCC)c1 [Compound 16] | < 1 nM | –
C=CC(=O)NCC(=O)Nc1cccc(NC(=O)c2cnc(NCCc3ccncc3)nc2NCCC)c1 [Compound 2] | < 1 nM | –
CCCNc1nc(NCCc2ccncc2)ncc1C(=O)Nc1ccc(C)c(NC(=O)CNC(=O)/C=C/CN(C)C)c1 [Compound 22] | < 1 nM | –
CCCNc1nc(Nc2ccc(C(N)=O)cc2)ncc1C(=O)Nc1cccc(NC(=O)[C@H](C)N(C)C(=O)/C=C/CN(C)C)c1 [Compound 27] | < 1 nM | –
CCCN(C)c1nc(NCCc2ccncc2)ncc1C#Cc1cccc(NC(=O)[C@H](C)N(C)C(=O)/C=C/CN(C)C)c1 [Compound 37] | < 1 nM | –
CCCNc1nc(Nc2cccc(F)c2)ncc1C#C[C@H]1C[C@@H](NC(=O)[C@H](C)N(C)C(=O)/C=C/CN(C)C)C1 [Compound 39] | < 1 nM | GI50 (32D FLT3 D835Ins cells; [2]): < 1 nM; GI50 (32D FLT3 D835Y cells; [3]): 1 to 10 nM; GI50 (32D FLT3 Y842C cells; [4]): 1 to 10 nM; GI50 (32D FLT3/FL cells; FLT3/FL, 2 days with compound): < 1 nM; GI50 (32D FLT3 D835V cells; [5]): 1 to 10 nM; GI50 (32D FLT3 D835H cells; [6]): 1 to 10 nM; GI50 (32D FLT3 D835N cells; [7]): < 1 nM; GI50 (32D FLT3 D835E cells; [8]): < 1 nM; GI50 (32D FLT3 Y842H cells; [9]): 1 to 10 nM
C=CC(=O)NCCNc1cccc(NC(=O)c2cnc(NCCc3ccncc3)nc2NCCC)c1 [Compound 15] | 1 to 10 nM | –
CCCNc1nc(NCCc2ccncc2)ncc1C(=O)Nc1cccc(NC(=O)CNC(=O)/C=C/CN2CC(C)NC(C)C2)c1 (stereo not shown) [Compound 21] | < 1 nM | –
C=CC(=O)NCC(=O)Nc1cc(Cl)cc(NC(=O)c2cnc(NCCc3ccncc3)nc2NCCC)c1 [Compound 4] | 1 to 10 nM | –
CCCNc1nc(NCCc2ccncc2)ncc1C(=O)NCCCNC(=O)CNC(=O)/C=C/CN(C)C [Compound 23] | < 1 nM | –
CCCNc1nc(Nc2cccc(F)c2)ncc1C#CCCCNC(=O)[C@H](C)N(C)C(=O)/C=C/CN(C)C [Compound 34] | < 1 nM | –
C=CC(=O)N[C@H](C)C(=O)Nc1cccc(NC(=O)c2cnc(NCCc3ccncc3)nc2NCCC)c1 [Compound 8] | 1 to 10 nM | –
